Results: ChEMBL document CHEMBL1135425, “Antitumor agents. 213. Modeling of epipodophyllotoxin derivatives using variable selection k nearest neighbor QSAR method” (J Med Chem, 2002)
“And” between values parts separate entries of the source, which are not always exact repeats. Equal values may be shown once.

molecular target: DNA topoisomerase II (Homo sapiens) (UniProt P11388+Q02880); assay: Percentage of intracellular covalent DNA-topoisomerase II complexes formed; format: cell-based

SMILES | Complex formation
COc1cc([C@@H]2c3cc4c(cc3C(Nc3cccc([N+](=O)[O-])c3)[C@H]3COC(=O)[C@H]23)OCO4)cc(O)c1O (stereo partly specified) | 75%
COc1cc([C@@H]2c3cc4c(cc3[C@@H](Nc3ccccn3)[C@H]3COC(=O)[C@H]23)OCO4)cc(OC)c1O | 97%
COC1=CC([C@@H]2c3cc4c(cc3C(NC(N=O)C(C)C)[C@H]3COC(=O)[C@H]23)OCO4)=CC(=O)C1(O)CC(C)=O (stereo partly specified) | 1%
COc1cc([C@@H]2c3cc4c(cc3[C@@H](NC(=O)c3cccc(C#N)c3)[C@H]3COC(=O)[C@H]23)OCO4)cc(OC)c1O | 149%
CCOC(=O)c1ccc(NC2c3cc(OC)c(OC)cc3[C@@H](c3cc(OC)c(OC)c(OC)c3)[C@H]3C(=O)OC[C@H]23)cc1 (stereo partly specified) | 9%
COc1cc([C@@H]2c3cc4c(cc3[C@@H](Nc3cccc(Br)c3)[C@H]3COC(=O)[C@H]23)OCO4)cc(OC)c1O | 62%
COc1cc([C@@H]2c3cc4c(cc3[C@@H](Nc3ccc(I)cc3)[C@H]3COC(=O)[C@H]23)OCO4)cc(OC)c1O | 64%
COc1cc([C@@H]2c3cc4c(cc3[C@@H](Nc3ccc(N5CCOCC5)cc3)[C@H]3COC(=O)[C@H]23)OCO4)cc(OC)c1O | 140%
COc1cc([C@@H]2c3cc4c(cc3[C@@H](Nc3cccc(O)c3)[C@H]3COC(=O)[C@H]23)OCO4)cc(OC)c1O | 290%
COc1cc([C@@H]2c3cc4c(cc3[C@@H](Nc3ccc(Br)cc3)[C@H]3COC(=O)[C@H]23)OCO4)cc(OC)c1O | 179%
COc1cc([C@@H]2c3cc4c(cc3[C@@H](Nc3ccc(O)cc3)[C@H]3COC(=O)[C@H]23)OCO4)cc(OC)c1O | 211%
COc1cc([C@@H]2c3cc4c(cc3C(Nc3ccc(C#N)cc3)[C@H]3COC(=O)[C@H]23)OCO4)cc(O)c1O (stereo partly specified) | 146%
COc1cc([C@@H]2c3cc4c(cc3[C@@H](Sc3ccc(O)cc3)[C@H]3COC(=O)[C@H]23)OCO4)cc(OC)c1O | 10%
COc1cc([C@@H]2c3cc4c(cc3[C@@H](NC(=O)NCCCl)[C@H]3COC(=O)[C@H]23)OCO4)cc(OC)c1O | 143%
COc1cc([C@@H]2c3cc(O)c(O)cc3[C@@H](Nc3cccc(O)c3)[C@H]3COC(=O)[C@H]23)cc(OC)c1O | 18%
COc1cc([C@@H]2c3cc4c(cc3[C@@H](Nc3cccnc3)[C@H]3COC(=O)[C@H]23)OCO4)cc(OC)c1O | 148%
COC(=O)c1cc(N[C@@H]2c3cc4c(cc3[C@@H](c3cc(OC)c(O)c(OC)c3)[C@H]3C(=O)OC[C@@H]32)OCO4)ccc1O | 83%
COc1cc([C@@H]2c3cc4c(cc3[C@@H](OC(=O)c3ccc(N)cc3)[C@H]3COC(=O)[C@H]23)OCO4)cc(OC)c1O | 94%
COc1cc([C@@H]2c3cc4c(cc3[C@@H](NCc3ccc(F)cc3)[C@H]3COC(=O)[C@H]23)OCO4)cc(OC)c1O | 169%
COc1cc([C@@H]2c3cc4c(cc3[C@@H](NCc3ccccc3)[C@H]3COC(=O)[C@H]23)OCO4)cc(OC)c1O | 181%
COc1cc([C@@H]2c3cc4c(cc3[C@@H](NCc3cccc(Cl)c3)[C@H]3COC(=O)[C@H]23)OCO4)cc(OC)c1O | 159%
C=CCN[C@@H]1c2cc3c(cc2[C@@H](c2cc(OC)c(O)c(OC)c2)[C@H]2C(=O)OC[C@@H]21)OCO3 | 84.1%

SMILES | Complex formation
COc1cc([C@@H]2c3cc4c(cc3C(Nc3ccc([N+](=O)[O-])cc3)[C@H]3COC(=O)[C@H]23)OCO4)cc(O)c1O (stereo partly specified) | 200%
COc1cc([C@@H]2c3cc4c(cc3[C@@H](NCc3ccc([N+](=O)[O-])cc3)[C@H]3COC(=O)[C@H]23)OCO4)cc(OC)c1O | 216%
COc1ccc(N[C@@H]2c3cc4c(cc3[C@@H](c3cc(OC)c(O)c(OC)c3)[C@H]3C(=O)OC[C@@H]32)OCO4)c([N+](=O)[O-])c1 | 15%
COc1cc([C@@H]2c3cc4c(cc3C(Nc3ccc(C(C)=O)cc3)[C@H]3COC(=O)[C@H]23)OCO4)cc(O)c1O (stereo partly specified) | 147%
COC(=O)c1cccc(N[C@@H]2c3cc4c(cc3[C@@H](c3cc(OC)c(O)c(OC)c3)[C@H]3C(=O)OC[C@@H]32)OCO4)c1 | 249%
COc1cc([C@@H]2c3cc4c(cc3[C@@H](O[C@@H]3O[C@@H]5CO[C@@H](C)O[C@H]5[C@H](O)[C@H]3O)[C@H]3COC(=O)[C@H]23)OCO4)cc(OC)c1O | 100%
COc1cc([C@@H]2c3cc4c(cc3[C@@H](N[C@H](C)CO)[C@H]3COC(=O)[C@H]23)OCO4)cc(OC)c1O | 162%
CNC(=O)N[C@@H]1c2cc3c(cc2[C@@H](c2cc(OC)c(O)c(OC)c2)[C@H]2C(=O)OC[C@@H]21)OCO3 | 81%
COc1cc2c(cc1OC)[C@@H](c1cc(OC)c(OC)c(OC)c1)[C@H]1C(=O)OC[C@@H]1C2Nc1ccc(F)cc1 (stereo partly specified) | 8%
COc1cc([C@@H]2c3cc4c(cc3[C@@H](NC(=O)c3ccc([N+](=O)[O-])cc3)[C@H]3COC(=O)[C@H]23)OCO4)cc(OC)c1O | 160%
COc1cc([C@@H]2c3cc4c(cc3[C@@H](Nc3ccc(Oc5ccccc5)cc3)[C@H]3COC(=O)[C@H]23)OCO4)cc(OC)c1O | 97%
COc1cc([C@@H]2c3cc4c(cc3[C@@H](Nc3ccc5c(c3)OCO5)[C@H]3COC(=O)[C@H]23)OCO4)cc(OC)c1O | 164%
COC(=O)c1ccc(NC2c3cc4c(cc3[C@@H](c3cc(O)c(O)c(OC)c3)[C@H]3C(=O)OC[C@H]23)OCO4)cc1 (stereo partly specified) | 175%
COc1ccc(N[C@@H]2c3cc4c(cc3[C@@H](c3cc(OC)c(O)c(OC)c3)[C@H]3C(=O)OC[C@@H]32)OCO4)cc1OC | 180%
COc1cc2c(cc1OC)[C@@H](Nc1ccc([N+](=O)[O-])cc1)[C@H]1COC(=O)[C@@H]1[C@@H]2c1cc(OC)c(OC)c(OC)c1 | 8%
COc1cc([C@@H]2c3cc4c(cc3[C@@H](Nc3cccc(CO)c3)[C@H]3COC(=O)[C@H]23)OCO4)cc(OC)c1O | 235%
COc1cc([C@@H]2c3cc4c(cc3[C@@H](NCc3ccccc3[N+](=O)[O-])[C@H]3COC(=O)[C@H]23)OCO4)cc(OC)c1O | 144%
COc1cc([C@@H]2c3cc4c(cc3[C@@H](Nc3cc(C(F)(F)F)cc(C(F)(F)F)c3)[C@H]3COC(=O)[C@H]23)OCO4)cc(OC)c1O | 21%
COc1cc([C@@H]2c3cc4c(cc3[C@@H](O)[C@H]3COC(=O)[C@H]23)OCO4)cc(OC)c1O | 42.2%
COc1cc([C@@H]2c3cc4c(cc3[C@@H](Nc3ccc(NC(=O)c5cc([N+](=O)[O-])cn5C)cc3)[C@H]3COC(=O)[C@H]23)OCO4)cc(OC)c1O | 100%
COc1cc([C@@H]2c3cc4c(cc3[C@@H](Nc3cnc5ccccc5c3)[C@H]3COC(=O)[C@H]23)OCO4)cc(OC)c1O | 123%
COc1cc([C@@H]2c3cc4c(cc3[C@@H](NC(=O)c3ccc(C#N)cc3)[C@H]3COC(=O)[C@H]23)OCO4)cc(OC)c1O | 159%

SMILES | Complex formation
COc1ccc(NC2c3cc4c(cc3[C@@H](c3cc(O)c(O)c(OC)c3)[C@H]3C(=O)OC[C@H]23)OCO4)cc1 (stereo partly specified) | 96%
COc1cc([C@@H]2c3cc4c(cc3[C@@H](Nc3ccccc3Cl)[C@H]3COC(=O)[C@H]23)OCO4)cc(OC)c1O | 32%
COc1cc([C@@H]2c3cc4c(cc3[C@@H](Nc3ccccc3F)[C@H]3COC(=O)[C@H]23)OCO4)cc(OC)c1O | 121%
COc1cc([C@@H]2c3cc4c(cc3[C@@H](Nc3ccc(-c5nc6ccccc6[nH]5)cc3)[C@H]3COC(=O)[C@H]23)OCO4)cc(OC)c1O | 128%
COc1cccc(N[C@@H]2c3cc4c(cc3[C@@H](c3cc(OC)c(O)c(OC)c3)[C@H]3C(=O)OC[C@@H]32)OCO4)c1 | 104%
COc1cc([C@@H]2c3cc4c(cc3[C@@H](Nc3cccc(Cl)c3)[C@H]3COC(=O)[C@H]23)OCO4)cc(OC)c1O | 51%
COc1cc([C@@H]2c3cc4c(cc3[C@@H](Nc3cc([N+](=O)[O-])ccc3O)[C@H]3COC(=O)[C@H]23)OCO4)cc(OC)c1O | 15%
CCOC(=O)CC[C@H](NC(=O)c1ccc(N[C@@H]2c3cc4c(cc3[C@@H](c3cc(OC)c(O)c(OC)c3)[C@H]3C(=O)OC[C@@H]32)OCO4)cc1)C(=O)OCC | 83%
COc1cc([C@@H]2c3cc4c(cc3[C@@H](Nc3cc(F)cc(F)c3)[C@H]3COC(=O)[C@H]23)OCO4)cc(OC)c1O | 115%
COc1cc([C@@H]2c3cc(O)c(O)cc3C(Nc3ccc(F)cc3)[C@H]3COC(=O)[C@H]23)cc(OC)c1O (stereo partly specified) | 52%
COc1cc([C@@H]2c3cc4c(cc3[C@@H](NC(=O)c3ccccc3O)[C@H]3COC(=O)[C@H]23)OCO4)cc(OC)c1O | 160%
COc1cc([C@@H]2c3cc4c(cc3[C@@H](NCCN3CCCCC3)[C@H]3COC(=O)[C@H]23)OCO4)cc(OC)c1O | 190% and 183%
COc1cc([C@@H]2c3cc4c(cc3[C@@H](Nc3cccc([N+](=O)[O-])c3)[C@H]3COC(=O)[C@H]23)OCO4)cc(OC)c1O | 230%
CCOC(=O)c1ccc(NC2c3cc(O)c(O)cc3[C@@H](c3cc(OC)c(OC)c(OC)c3)[C@H]3C(=O)OC[C@H]23)cc1 (stereo partly specified) | 22%
COc1cc([C@@H]2c3cc4c(cc3[C@@H](NC(C)C)[C@H]3COC(=O)[C@H]23)OCO4)cc(OC)c1O | 109%
COc1cc2c(cc1OC)[C@@H](c1cc(OC)c(O)c(OC)c1)[C@H]1C(=O)OC[C@@H]1C2Nc1ccc([N+](=O)[O-])cc1 (stereo partly specified) | 75%
COc1cc([C@@H]2c3cc4c(cc3[C@@H](Nc3ccc(Cl)cc3)[C@H]3COC(=O)[C@H]23)OCO4)cc(OC)c1O | 99%
COc1cc([C@@H]2c3cc4c(cc3[C@@H](Nc3nc5ccccc5[nH]3)[C@H]3COC(=O)[C@H]23)OCO4)cc(OC)c1O | 58%
COc1cc([C@@H]2c3cc4c(cc3[C@@H](NC(=O)c3cccc(N)c3)[C@H]3COC(=O)[C@H]23)OCO4)cc(OC)c1O | 149%
COc1cc([C@@H]2c3cc4c(cc3[C@@H](NC(=O)c3ccccc3F)[C@H]3COC(=O)[C@H]23)OCO4)cc(OC)c1O | 128%
COC(=O)c1cc(N[C@@H]2c3cc4c(cc3[C@@H](c3cc(OC)c(O)c(OC)c3)[C@H]3C(=O)OC[C@@H]32)OCO4)cc(C(=O)OC)c1 | 50%
COc1cc([C@@H]2c3cc(O)c(O)cc3[C@@H](Nc3ccccc3)[C@H]3COC(=O)[C@H]23)cc(OC)c1O | 4%
